Measurements taken from ChEMBL document CHEMBL3046931, “Synthesis, antioxidant, and antitumor evaluation of certain new N-substituted-2-amino-1,3,4-thiadiazoles” (Med Chem Res, 2013).

Legend:
Ehrlich = assay: In vitro antitumor activity against Mus musculus (mouse) Ehrlich ascites cell assessed as dead tumor cells by trypan blue exclusion test; format: functional
[1] = Pro-oxidant activity assessed as bleomycin-Fe3+ complex-induced DNA damage at 1 mg/ml after 1 hr; format: ADME
[2] = Antioxidant activity assessed as inhibition of ABTS free radical formation at 1 mg/ml by spectroscopic analysis (reference value: 0%); format: functional
[3] = Antioxidant activity assessed as inhibition of ABTS free radical formation at 2 mM by spectroscopic analysis (reference value: 0%); format: functional

Structure (SMILES) | ED25 (Ehrlich) [microg/cm3] | ED50 (Ehrlich) [microg/cm3] | ED100 (Ehrlich) [microg/cm3] | OD [1] | inhibition [2] [%] | inhibition [3] [%]
O=C(CNc1nncs1)Nc1nncs1 | 9.4 | 18.9 | 39.1 | – | – | –
Nc1nnc(SCC(=O)Nc2nncs2)s1 | 14.4 | 27 | 42.5 | 0.101 | 20.7 | –
Clc1ccc(C/N=c2/scnn2Cc2ccc(Cl)cc2)cc1 | 7.4 | 16 | 29 | 0.121 | 38 | –
O=C(Nc1nncs1)c1ccc(Cl)cc1 | 11 | 24 | 52 | 0.1 | 26.5 | –
O=c1[nH]cc(F)c(=O)[nH]1 [FLUOROURACIL] | 40 | 63 | 97 | – | – | –
N#C/C(=C\c1ccc(N2CCCCC2)cc1)C(=O)Nc1nncs1 | – | – | – | 0.114 | 28.7 | –
Clc1ccc(-c2nnnn2-c2nncs2)cc1 | 12 | 23 | 41 | – | – | –
c1nnc(/N=N/Nc2nncs2)s1 | 19.3 | 33 | 61.5 | 0.103 | 24.5 | –
Cl/C(=N\c1nncs1)c1ccc(Cl)cc1 | 6.9 | 13 | 6.9 | – | – | –
Nc1n[nH]cc1C(=O)Nc1nncs1 | – | – | – | 0.102 | 18.9 | –
O=C(CN1CCN(CC(=O)Nc2nncs2)CC1)Nc1nncs1 | 8.7 | 18 | 37 | – | – | –
Cc1cc(C)c2c(n1)nn1c(N)c(C(=O)Nc3nncs3)nnc21 | 25 | 48.2 | 80.7 | – | – | –
Clc1ccc(CNc2nncs2)cc1 | – | – | – | 0.108 | 0.354 | –
O=C(CN1CCN(c2ccccc2)CC1)Nc1nncs1 | 13 | 24 | 46.1 | 0.096 | 25.7 | –
O=Cc1ccc(Nc2nncs2)cc1 | 8.7 | 17.9 | 38.3 | 0.1 | 26.5 | –
Cc1cc(C)c2c(NN/C=C(\C#N)C(=O)Nc3nncs3)n[nH]c2n1 | 5 | 10.2 | 19 | 0.109 | 51.8 | –
Nc1nncs1 | 37 | 56 | 92.9 | 0.09 | 28.5 | –
O=C1O[C@H]([C@@H](O)CO)C(O)=C1O [ASCORBIC ACID] | – | – | – | 0.098 | – | 88.5
O=C(CCl)Nc1nncs1 | 7.8 | 16 | 28 | 0.102 | 27.1 | –
CC1=NN(c2ccccc2)C(=O)/C1=C/c1ccc(Nc2nncs2)cc1 | 8.8 | 17 | 31 | 0.105 | 41.6 | –
CC1=NN(c2ccccc2)C(=O)/C1=N\Nc1nncs1 | 10 | 21 | 42.1 | – | – | –
CN(C)/C=C(\C#N)C(=O)Nc1nncs1 | 7.8 | 14.1 | 26 | 0.127 | 23.7 | –
N#CCC(=O)Nc1nncs1 | – | – | – | 0.08 | 70.9 | –
N#CSCC(=O)Nc1nncs1 | – | – | – | 0.099 | 25.7 | –
